Data reported in ChEMBL document CHEMBL1201862, “PubChem BioAssay data set” (2004).
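Interpolation was linear, between the two tested concentrations surrounding the appropriate level; five concentrations were tested over 48 hours in 96-well plates. At the GI50, growth is halved.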 Activity calls are given as the source filed them. No stated cut-off is given here; in the data, active = GI50 up to about 1.1 µM and inactive = higher.

Assays:
Assay in all cases: NCI-60 cell line screen, 48 h
786-0 = tested on: 786-0
A498 = tested on: A498
A549 = tested on: A549
ACHN = tested on: ACHN
BT-549 = tested on: BT-549
CAKI-1 = tested on: CAKI-1
CCRF-CEM = tested on: CCRF-CEM
COLO 205 = tested on: COLO 205
DLD-1 = tested on: DLD-1
DMS-114 = tested on: DMS-114
DMS-273 = tested on: DMS-273
DU-145 = tested on: DU-145
EKVX = tested on: EKVX
HCC 2998 = tested on: HCC 2998
HCT-116 = tested on: HCT-116
HCT-15 = tested on: HCT-15
HL-60 = tested on: HL-60
HOP-18 = tested on: HOP-18
HOP-62 = tested on: HOP-62
HOP-92 = tested on: HOP-92
HT-29 = tested on: HT-29
Hs-578T = tested on: Hs-578T
IGROV-1 = tested on: IGROV-1
K562 = tested on: K562
KM-20L2 = tested on: KM-20L2
KM12 = tested on: KM12
LOX IMVI = tested on: LOX IMVI
LXFL 529 = tested on: LXFL 529
M14 = tested on: M14
MCF7 = tested on: MCF7
MDA-MB-231 = tested on: MDA-MB-231
MDA-MB-435 = tested on: MDA-MB-435
MDA-N = tested on: MDA-N
MOLT-4 = tested on: MOLT-4
Malme-3M = tested on: Malme-3M
NCI-H226 = tested on: NCI-H226
NCI-H23 = tested on: NCI-H23
NCI-H460 = tested on: NCI-H460
NCI-H522 = tested on: NCI-H522
NCI/ADR-RES = tested on: NCI/ADR-RES
OVCAR-3 = tested on: OVCAR-3
OVCAR-4 = tested on: OVCAR-4
OVCAR-5 = tested on: OVCAR-5
OVCAR-8 = tested on: OVCAR-8
PC-3 = tested on: PC-3
RPMI-8226 = tested on: RPMI-8226
RXF 393 = tested on: RXF 393
SF-268 = tested on: SF-268
SF-295 = tested on: SF-295
SF-539 = tested on: SF-539
SK-MEL-28 = tested on: SK-MEL-28
SK-MEL-2 = tested on: SK-MEL-2
SK-MEL-5 = tested on: SK-MEL-5
SK-OV-3 = tested on: SK-OV-3
SN12C = tested on: SN12C
SNB-19 = tested on: SNB-19
SNB-75 = tested on: SNB-75
SNB-78 = tested on: SNB-78
SR = tested on: SR
SW-620 = tested on: SW-620
T47D = tested on: T47D
TK-10 = tested on: TK-10
U-251 = tested on: U-251
UACC-257 = tested on: UACC-257
UACC-62 = tested on: UACC-62
UO-31 = tested on: UO-31
M19-MEL = tested on: M19-MEL

NC(Cc1ccc2oc3cc(=O)c4ccccc4c-3nc2c1)C(=O)O (stereo not drawn)
GI50 (786-0): 50.2 µM (inactive)
GI50 (A498): 70.6 µM (inactive)
GI50 (A549): 16.7 µM (inactive)
GI50 (ACHN): 55.7 µM (inactive)
GI50 (BT-549): 14.4 µM (inactive)
GI50 (CAKI-1): > 79.4 µM (inactive)
GI50 (CCRF-CEM): 40.7 µM (inactive)
GI50 (COLO 205): 6.97 µM (inactive)
GI50 (DLD-1): 34.8 µM (inactive)
GI50 (DMS-114): 13.9 µM (inactive)
GI50 (DMS-273): 22.4 µM (inactive)
GI50 (DU-145): 15.5 µM (inactive)
GI50 (EKVX): > 83.4 µM (inactive)
GI50 (HCC 2998): 16 µM (inactive)
GI50 (HCT-116): 36 µM (inactive)
GI50 (HCT-15): 17.8 µM
GI50 (HL-60): 40.8 µM (inactive)
GI50 (HOP-18): 25.8 µM (inactive)
GI50 (HOP-62): 25.9 µM (inactive)
GI50 (HOP-92): > 78.7 µM (inactive)
GI50 (HT-29): 28.7 µM (inactive)
GI50 (Hs-578T): 11.7 µM (inactive)
GI50 (IGROV-1): 68.2 µM (inactive)
GI50 (K562): 34.2 µM (inactive)
GI50 (KM-20L2): 39.2 µM (inactive)
GI50 (KM12): 39.2 µM (inactive)
GI50 (LOX IMVI): 13.4 µM (inactive)
GI50 (LXFL 529): 55.5 µM (inactive)
GI50 (M14): 12.5 µM (inactive)
GI50 (MCF7): 2.86 µM (inactive)
GI50 (MDA-MB-231): > 79.6 µM (inactive)
GI50 (MDA-MB-435): 4.4 µM (inactive)
GI50 (MDA-N): 6.73 µM (inactive)
GI50 (MOLT-4): 41.1 µM (inactive)
GI50 (Malme-3M): 6.52 µM (inactive)
GI50 (NCI-H226): 27.3 µM (inactive)
GI50 (NCI-H23): 4.31 µM (inactive)
GI50 (NCI-H460): 11.5 µM (inactive)
GI50 (NCI-H522): 39.8 µM (inactive)
GI50 (NCI/ADR-RES): 47.4 µM (inactive)
GI50 (OVCAR-3): 19.6 µM (inactive)
GI50 (OVCAR-4): 67.5 µM (inactive)
GI50 (OVCAR-5): 66.7 µM (inactive)
GI50 (OVCAR-8): 37.4 µM (inactive)
GI50 (PC-3): > 83 µM (inactive)
GI50 (RPMI-8226): 42.2 µM (inactive)
GI50 (RXF 393): 77.6 µM (inactive)
GI50 (SF-268): 43 µM (inactive)
GI50 (SF-295): 22.3 µM (inactive)
GI50 (SF-539): 20.3 µM (inactive)
GI50 (SK-MEL-28): 25.8 µM (inactive)
GI50 (SK-MEL-2): 22.6 µM (inactive)
GI50 (SK-MEL-5): 4.92 µM (inactive)
GI50 (SK-OV-3): > 100 µM (inactive)
GI50 (SN12C): 16.4 µM (inactive)
GI50 (SNB-19): 22.3 µM (inactive)
GI50 (SNB-75): 11.2 µM (inactive)
GI50 (SNB-78): > 100 µM (inactive)
GI50 (SR): 16.6 µM (inactive)
GI50 (SW-620): 29.3 µM (inactive)
GI50 (T47D): 38.5 µM (inactive)
GI50 (TK-10): 69.7 µM (inactive)
GI50 (U-251): 26.2 µM (inactive)
GI50 (UACC-257): 20.5 µM (inactive)
GI50 (UACC-62): 11.7 µM (inactive)
GI50 (UO-31): 33.8 µM (inactive)

COc1cc2c(cc1OC)[C@H]1C(COC(=O)Nc3ccccc3)CN1CC2 (stereo partly drawn)
GI50 (786-0): > 100 µM (inactive)
GI50 (A498): 70.6 µM (inactive)
GI50 (A549): > 100 µM (inactive)
GI50 (ACHN): > 100 µM (inactive)
GI50 (CAKI-1): > 100 µM (inactive)
GI50 (CCRF-CEM): > 100 µM (inactive)
GI50 (COLO 205): > 100 µM (inactive)
GI50 (DLD-1): > 100 µM (inactive)
GI50 (DMS-273): > 100 µM (inactive)
GI50 (HCC 2998): 67.6 µM (inactive)
GI50 (HCT-116): > 100 µM (inactive)
GI50 (HCT-15): > 100 µM
GI50 (HL-60): > 100 µM (inactive)
GI50 (HOP-18): > 100 µM (inactive)
GI50 (HOP-62): > 100 µM (inactive)
GI50 (HOP-92): 69.3 µM (inactive)
GI50 (HT-29): 74.5 µM (inactive)
GI50 (IGROV-1): > 100 µM (inactive)
GI50 (K562): > 100 µM (inactive)
GI50 (KM12): > 100 µM (inactive)
GI50 (LOX IMVI): 57.9 µM (inactive)
GI50 (LXFL 529): > 100 µM (inactive)
GI50 (M14): 53.8 µM (inactive)
GI50 (M19-MEL): > 100 µM (inactive)
GI50 (MOLT-4): 95.5 µM (inactive)
GI50 (Malme-3M): > 100 µM (inactive)
GI50 (NCI-H23): > 100 µM (inactive)
GI50 (NCI-H460): > 100 µM (inactive)
GI50 (NCI-H522): > 100 µM (inactive)
GI50 (OVCAR-3): > 100 µM (inactive)
GI50 (OVCAR-4): > 100 µM (inactive)
GI50 (OVCAR-5): > 100 µM (inactive)
GI50 (OVCAR-8): > 100 µM (inactive)
GI50 (RPMI-8226): > 100 µM (inactive)
GI50 (RXF 393): 58.5 µM (inactive)
GI50 (SF-268): > 100 µM (inactive)
GI50 (SF-295): > 100 µM (inactive)
GI50 (SF-539): > 100 µM (inactive)
GI50 (SK-MEL-28): > 100 µM (inactive)
GI50 (SK-MEL-2): > 100 µM (inactive)
GI50 (SK-MEL-5): 53.8 µM (inactive)
GI50 (SK-OV-3): > 100 µM (inactive)
GI50 (SN12C): > 100 µM (inactive)
GI50 (SNB-19): > 100 µM (inactive)
GI50 (SNB-75): 18.6 µM (inactive)
GI50 (SR): 75.3 µM (inactive)
GI50 (SW-620): > 100 µM (inactive)
GI50 (TK-10): > 100 µM (inactive)
GI50 (U-251): > 100 µM (inactive)
GI50 (UACC-62): > 100 µM (inactive)
GI50 (UO-31): > 100 µM (inactive)

C/C(CCN(C)C)=N\OC(=O)c1ccccc1
GI50 (786-0): > 100 µM (inactive)
GI50 (A498): > 100 µM (inactive)
GI50 (A549): > 100 µM (inactive)
GI50 (ACHN): > 100 µM (inactive)
GI50 (CAKI-1): > 100 µM (inactive)
GI50 (CCRF-CEM): > 100 µM (inactive)
GI50 (COLO 205): > 100 µM (inactive)
GI50 (DLD-1): > 100 µM (inactive)
GI50 (DMS-114): > 100 µM (inactive)
GI50 (DMS-273): > 100 µM (inactive)
GI50 (EKVX): > 100 µM (inactive)
GI50 (HCC 2998): > 100 µM (inactive)
GI50 (HCT-116): > 100 µM (inactive)
GI50 (HL-60): > 100 µM (inactive)
GI50 (HOP-18): 1.66 µM (inactive)
GI50 (HOP-62): > 100 µM (inactive)
GI50 (HOP-92): > 100 µM (inactive)
GI50 (HT-29): > 100 µM (inactive)
GI50 (IGROV-1): > 100 µM (inactive)
GI50 (K562): > 100 µM (inactive)
GI50 (KM-20L2): > 100 µM (inactive)
GI50 (KM12): > 100 µM (inactive)
GI50 (LOX IMVI): > 100 µM (inactive)
GI50 (LXFL 529): > 100 µM (inactive)
GI50 (M14): > 100 µM (inactive)
GI50 (M19-MEL): > 100 µM (inactive)
GI50 (MOLT-4): > 100 µM (inactive)
GI50 (Malme-3M): > 100 µM (inactive)
GI50 (NCI-H226): > 100 µM (inactive)
GI50 (NCI-H23): > 100 µM (inactive)
GI50 (NCI-H460): > 100 µM (inactive)
GI50 (NCI-H522): > 100 µM (inactive)
GI50 (OVCAR-3): > 100 µM (inactive)
GI50 (OVCAR-4): > 100 µM (inactive)
GI50 (OVCAR-5): > 100 µM (inactive)
GI50 (OVCAR-8): > 100 µM (inactive)
GI50 (RPMI-8226): > 100 µM (inactive)
GI50 (RXF 393): > 100 µM (inactive)
GI50 (SF-268): > 100 µM (inactive)
GI50 (SF-295): 63.7 µM (inactive)
GI50 (SF-539): > 100 µM (inactive)
GI50 (SK-MEL-28): > 100 µM (inactive)
GI50 (SK-MEL-2): > 100 µM (inactive)
GI50 (SK-MEL-5): > 100 µM (inactive)
GI50 (SK-OV-3): > 100 µM (inactive)
GI50 (SN12C): > 100 µM (inactive)
GI50 (SNB-19): > 100 µM (inactive)
GI50 (SNB-75): 50.8 µM (inactive)
GI50 (SNB-78): > 100 µM (inactive)
GI50 (SR): > 100 µM (inactive)
GI50 (SW-620): > 100 µM (inactive)
GI50 (TK-10): > 100 µM (inactive)
GI50 (U-251): > 100 µM (inactive)
GI50 (UACC-257): > 100 µM (inactive)
GI50 (UACC-62): > 100 µM (inactive)
GI50 (UO-31): > 100 µM (inactive)
